Laboratory results as given in US12440496B2, “Natriuretic peptide receptor a agonists useful for the treatment of cardiometabolic diseases, kidney disease and diabetes” (Merck Sharp & Dohme LLC, priority 2019, dated 2025).

Each compound was assayed against T1, hNPRA (Homo sapiens, UniProt P16066) (assay: NPRA Functional Cell Assay (cGMP HTRF, NPRA HEK JumpIn stable cells)). Details: cGMP production, 1 hour at 37° C., 10-point dose response.
T1 construct: expressed in transfected cells
T1 sequence (P16066 33-1061): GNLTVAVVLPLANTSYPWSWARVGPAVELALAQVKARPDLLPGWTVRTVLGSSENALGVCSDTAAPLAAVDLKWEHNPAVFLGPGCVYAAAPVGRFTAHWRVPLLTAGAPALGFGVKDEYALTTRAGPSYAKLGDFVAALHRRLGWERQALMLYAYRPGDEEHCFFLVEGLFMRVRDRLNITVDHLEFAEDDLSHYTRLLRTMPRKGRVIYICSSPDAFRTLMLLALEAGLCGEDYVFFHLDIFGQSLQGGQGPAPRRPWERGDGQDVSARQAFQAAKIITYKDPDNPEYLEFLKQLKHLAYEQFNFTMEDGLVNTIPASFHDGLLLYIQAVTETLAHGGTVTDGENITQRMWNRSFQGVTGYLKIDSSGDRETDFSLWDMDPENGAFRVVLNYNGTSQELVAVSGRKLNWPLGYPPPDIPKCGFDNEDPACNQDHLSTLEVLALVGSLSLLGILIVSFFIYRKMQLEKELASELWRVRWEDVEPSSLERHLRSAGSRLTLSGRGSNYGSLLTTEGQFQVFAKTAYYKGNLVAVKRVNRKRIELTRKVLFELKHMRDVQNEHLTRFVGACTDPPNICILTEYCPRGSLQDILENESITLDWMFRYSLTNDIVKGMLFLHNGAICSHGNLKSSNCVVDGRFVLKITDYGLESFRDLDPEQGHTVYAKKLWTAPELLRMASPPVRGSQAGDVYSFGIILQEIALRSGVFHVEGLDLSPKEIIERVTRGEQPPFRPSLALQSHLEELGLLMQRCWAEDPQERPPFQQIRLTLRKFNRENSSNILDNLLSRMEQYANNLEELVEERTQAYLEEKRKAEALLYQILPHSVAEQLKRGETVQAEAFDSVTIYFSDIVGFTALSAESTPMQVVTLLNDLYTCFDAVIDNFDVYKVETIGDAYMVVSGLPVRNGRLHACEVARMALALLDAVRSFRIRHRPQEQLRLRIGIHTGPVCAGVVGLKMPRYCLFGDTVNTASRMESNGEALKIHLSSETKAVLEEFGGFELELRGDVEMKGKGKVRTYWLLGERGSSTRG
Format: cell-based
In short: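 cGMP HTRF read-out after 1 hour compound treatment at 37° C. of human NPRA-expressing HEK JumpIn cells, 1500 cells/well, in buffer with phosphodiesterase inhibitors IBMX and RO20 (100 uM each). Signal converted to [cGMP] by calibration curve; EC50s fitted by 4-parameter logistic; 50 nM h-ANP as positive response.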

Compound | EC50 [nM]
CN(C)S(=O)(=O)Nc1ccc([C@@H](CCN2CC[C@@H](O)C2)NC(=O)c2nc3cc4c(nc3s2)CC[C@H](C(C)(C)C)C4)cn1 (racemic) [Example 211, rac-(7S)-7-tert-butyl-N-[rac-(1R)-1-[6-(dimethylsulfamoylamino)-3-pyridyl]-3-[rac-(3R)-3-hydroxypyrrolidin-1-ium-1-yl]propyl]-5,6,7,8-tetrahydrothiazolo[5,4-b]quinoline-2-carboxamide; 2,2,2-trifluoroacetate] | 764
CC(C)CN(C)CC[C@@H](NC(=O)c1nc2cc3c(nc2s1)CC[C@H](C(C)(C)C)C3)c1ccc(NS(=O)(=O)N(C)C)nc1 (racemic) [Example 212, isobutyl-methyl-[rac-(3R)-3-[6-(dimethylsulfamoylamino)-3-pyridyl]-3-[rac-(7S)-7-tert-butyl-5,6,7,8-tetrahydrothiazolo[5,4-b]quinoline-2-carbonyl]amino]propyl]ammonium; 2,2,2-trifluoroacetate] | 986
CN(C)S(=O)(=O)Nc1ccc([C@@H](CCN2CC[C@H]2CO)NC(=O)c2nc3cc4c(nc3s2)CC[C@H](C(C)(C)C)C4)cn1 (racemic) [Example 213, rac-(7S)-7-tert-butyl-N-[rac-(1R)-1-[6-(dimethylsulfamoylamino)-3-pyridyl]-3-[rac-(2S)-2-(hydroxymethyl)azetidin-1-ium-1-yl]propyl]-5,6,7,8-tetrahydrothiazolo[5,4-b]quinoline-2-carboxamide; 2,2,2-trifluoroacetate] | 1010
CN(CC[C@@H](NC(=O)c1nc2cc3c(nc2s1)CC[C@H](C(C)(C)C)C3)c1ccc(NS(=O)(=O)N(C)C)nc1)Cc1ccn[nH]1 (racemic) [Example 214, methyl-(1H-pyrazol-5-ylmethyl)-[rac-(3R)-3-[6-(dimethylsulfamoylamino)-3-pyridyl]-3-[rac-(7S)-7-tert-butyl-5,6,7,8-tetrahydrothiazolo[5,4-b]quinoline-2-carbonyl]amino]propyl]ammonium; 2,2,2-trifluoroacetate] | 1240
CN(C)S(=O)(=O)Nc1ccc([C@@H](CCN2CCNC(=O)CC2)NC(=O)c2nc3cc4c(nc3s2)CC[C@H](C(C)(C)C)C4)cn1 (racemic) [Example 215, rac-(7S)-7-tert-butyl-N-[rac-(1R)-1-[6-(dimethylsulfamoylamino)-3-pyridyl]-3-(5-oxo-1,4-diazepan-1-ium-1-yl)propyl]-5,6,7,8-tetrahydrothiazolo[5,4-b]quinoline-2-carboxamide; 2,2,2-trifluoroacetate] | 1610
CC(C)(C)[C@H]1CCc2nc3sc(C(=O)N[C@H](CCN4CCC(O)CC4)c4ccc(-c5c[nH]c(=O)c(F)c5)cc4)nc3cc2C1 [Example 82, (7S)-7-tert-butyl-N-[(1R)-1-[4-(5-fluoro-6-hydroxy-3-pyridyl)phenyl]-3-(4-hydroxy-1-piperidyl)propyl]-5,6,7,8-tetrahydrothiazolo[5,4-b]quinoline-2-carboxamide] | 196
CC(C)(C)[C@H]1CCc2nc3sc(C(=O)N[C@H](CCN4CCC(O)CC4)c4ccc(-n5cncn5)cc4)nc3cc2C1 [Example 84, (7S)-7-tert-butyl-N-[(1R)-3-(4-hydroxy-piperidin-1-ium-1-yl)-1-[4-(1,2,4-triazol-1-yl)phenyl]propyl]-5,6,7,8-tetra-hydrothiazolo[5,4-b] quinoline-2-carboxamide; 2,2,2-trifluoro-acetate] | 802
CC(C)[C@]1(F)CCc2nc3sc(C(=O)N[C@H](CCN4CCC(O)CC4)c4ccc(N5CCOCS5(=O)=O)nc4)nc3cc2C1 [Example 217, (S)-N-((R)-1-(6-(3,3-dioxido-1,3,4-oxathiazinan-4-yl)pyridin-3-yl)-3-(4-hydroxypiperidin-1-yl)propyl)-7-fluoro-7-isopropyl-5,6,7,8-tetrahydrothiazolo[5,4-b]quinoline-2-carboxamide] | 71
CC1([C@H]2CCc3nc4sc(C(=O)N[C@H](CCN5CCC(O)CC5)c5ccc(N6CC(=O)NC6=O)nc5)nc4cc3C2)CC1 [Example 218, (S)-N-((R)-1-(6-(2,4-dioxoimidazolidin-1-yl)pyridin-3-yl)-3-(4-hydroxypiperidin-1-yl)propyl)-7-(1-methylcyclopropyl)-5,6,7,8-tetrahydrothiazolo[5,4-b]quinoline-2-carboxamide] | 242
CC(C)[C@]1(F)CCc2nc3sc(C(=O)N[C@H](CCN4CCC(O)CC4)c4ccc(N5CC(=O)NC5=O)nc4)nc3cc2C1 [Example 219, (S)-N-((R)-1-(6-(2,4-dioxoimidazolidin-1-yl)pyridin-3-yl)-3-(4-hydroxypiperidin-1-yl)propyl)-7-fluoro-7-isopropyl-5,6,7,8-tetrahydrothiazolo[5,4-b]quinoline-2-carboxamide] | 384
CC(C)(C)[C@H]1CCc2nc3sc(C(=O)N[C@H](CCN4CCC(O)CC4)c4ccc(N5CC(=O)NC5=O)nc4)nc3cc2C1 [Example 220, (S)-7-(tert-butyl)-N-((R)-1-(6-(2,4-dioxoimidazolidin-1-yl)pyridin-3-yl)-3-(4-hydroxypiperidin-1-yl)propyl)-5,6,7,8-tetrahydrothiazolo[5,4-b]quinoline-2-carboxamide] | 277
O=C1CN(c2ccc([C@@H](CCN3CCC(O)CC3)NC(=O)c3nc4cc5c(nc4s3)CC[C@H](C3(C(F)(F)F)CC3)C5)cn2)C(=O)N1 [Example 221, (S)-N-((R)-1-(6-(2,4-dioxoimidazolidin-1-yl)pyridin-3-yl)-3-(4-hydroxypiperidin-1-yl)propyl)-7-(1-(trifluoromethyl)cyclopropyl)-5,6,7,8-tetrahydrothiazolo[5,4-b]quinoline-2-carboxamide] | 1140
CC(C)(C)[C@H]1CCc2nc3sc(C(=O)N[C@H](CCN4CCC(C(=O)O)CC4)c4ccc(N5CC(=O)NC5=O)nc4)nc3cc2C1 [Example 222, 1-((R)-3-((S)-7-(tert-butyl)-5,6,7,8-tetrahydrothiazolo[5,4-b]quinoline-2-carboxamido)-3-(6-(2,4-dioxoimidazolidin-1-yl)pyridin-3-yl)propyl)piperidine-4-carboxylic acid] | 626
CC(C)(C)[C@H]1CCc2nc3sc(C(=O)N[C@H](CCN4CCC(C(=O)O)CC4)c4ccc(-c5cnc(O)c(F)c5)cc4)nc3cc2C1 [Example 223, 1-((R)-3-((S)-7-(tert-butyl)-5,6,7,8-tetrahydrothiazolo[5,4-b]quinoline-2-carboxamido)-3-(4-(5-fluoro-6-hydroxypyridin-3-yl)phenyl)propyl)piperidine-4-carboxylic acid] | 200
CC(C)(C)[C@H]1CCc2nc3sc(C(=O)N[C@H](CCN4CCC(C(=O)O)CC4)c4ccc(-c5cnc(O)c(F)c5)cc4)nc3cc2C1 [Example 224, sodium 1-((R)-3-((S)-7-(tert-butyl)-5,6,7,8-tetrahydrothiazolo[5,4-b]quinoline-2-carboxamido)-3-(4-(5-fluoro-6-hydroxypyridin-3-yl)phenyl)propyl)piperidine-4-carboxylate] | 198
CC(C)(C)[C@H]1CCc2nc3sc(C(=O)N[C@H](CCN)c4cccc(C(=O)N[C@H]5CCNC5)c4)cc3cc2C1 [Example 225] | 292
